Experimental data published in article PMC8587515, “Cytotoxic and Anti-Inflammatory Activities of Dihydroisocoumarin and Xanthone Derivatives from Garcinia picrorhiza” (Molecules, 2021).

Experiments:
[1] = test system: KB (human epidermoid carcinoma); assay: MTT cytotoxic activity assay, KB; type: cell-based; conditions: 72 h, mean ± SEM of three replicates
Procedure: (§1) The cytotoxic activity of the isolated compounds was evaluated using the MTT viability assay with doxorubicin as the positive control and the results are presented in Table 2.
(§2) The MTT colorimetric method was performed to evaluate cytotoxic activity of the isolated compounds against human epidermoid carcinoma (KB; ATCC CCL17), human cervical carcinoma (HeLa S3; ATCC CCL2-2), human colon adenocarcinoma (HT-29; ATCC HTB-38), human breast adenocarcinoma (MCF-7; ATCC HTB-22), and human hepatocellular carcinoma (Hep G2; ATCC HB-8065) cell lines according to the previous method. The cancer cells were cultured in MEM containing 10% fetal bovine serum in the presence of 100 U/mL penicillin and 100 μg/mL streptomycin sulphate (Gibco, Rockville, MD, USA), seeded in a 96-well plate (3000 cells/well), and pre-incubated at 37 °C for 24 h in a 5% CO2 humidified atmosphere. The tested compounds with serial concentrations (0.3–100 μM) were added and incubated for a further 72 h in the same condition. At the end of treatment, 20 µL of MTT solution (5 mg/mL in PBS, Sigma, St. Louis, MI, USA) was added to each well and further incubated for 3 h. After centrifugation at 1400 rpm for 5 min at 4 °C, the supernatant was decanted and DMSO (100 µL/well) was added to allow formazan product solubilization, which was subsequently measured by a microplate reader (Tecan Trading AG, Switzerland) at wavelength 550 nm. Control cells were treated with 0.1% DMSO. Doxorubicin (tested concentrations: 0.01–3.0 μM, Sigma) was used as the positive control. The results are expressed as the mean values of three replicates for three independent experiments. IC50 values were determined by graphical analysis using SigmaPlot 10 (Systat Software Inc., San Jose, CA, USA), obtained by plotting the cell viability percentage versus sample concentration.

[2] = test system: HeLa S3 (human cervical carcinoma); assay: MTT cytotoxic activity assay, HeLa S3; type: cell-based; conditions: 72 h, mean ± SEM of three replicates
Procedure: as §1, §2

[3] = test system: MCF-7 (human breast adenocarcinoma); assay: MTT cytotoxic activity assay, MCF-7; type: cell-based; conditions: MCF7, 72 h, mean ± SEM of three replicates
Procedure: as §1
(§3) The MTT colorimetric method was performed to evaluate cytotoxic activity of the isolated compounds against human epidermoid carcinoma (KB; ATCC CCL17), human cervical carcinoma (HeLa S3; ATCC CCL2-2), human colon adenocarcinoma (HT-29; ATCC HTB-38), human breast adenocarcinoma (MCF-7; ATCC HTB-22), and human hepatocellular carcinoma (Hep G2; ATCC HB-8065) cell lines according to the previous method. […] After centrifugation at 1400 rpm for 5 min at 4 °C, the supernatant was decanted and DMSO (100 µL/well) was added to allow formazan product solubilization, which was subsequently measured by a microplate reader (Tecan Trading AG, Switzerland) at wavelength 550 nm. […] The results are expressed as the mean values of three replicates for three independent experiments. IC50 values were determined by graphical analysis using SigmaPlot 10 (Systat Software Inc., San Jose, CA, USA), obtained by plotting the cell viability percentage versus sample concentration.

[4] = test system: Hep G2 (human hepatocellular carcinoma); assay: MTT cytotoxic activity assay, Hep G2; type: cell-based; conditions: HepG2, 72 h, mean ± SEM of three replicates
Procedure: as §1, §3

[5] = test system: HT-29 (human colon adenocarcinoma); assay: MTT cytotoxic activity assay, HT-29; type: cell-based; conditions: 72 h, mean ± SEM of three replicates
Procedure: as §1, §3

[6] = target: T1, COX-1 (purified PGHS-1 from ram seminal vesicles) (Ovis aries, UniProt P05979); parameters: method as in PMID 32627543; conditions: at 20 µM; cited from earlier work
T1 construct: Purified PGHS-1 from ram seminal vesicles for COX-1; purchased Cayman Chemical Co., Ann Arbor, MI, USA; host or cells: ram seminal vesicles (tissue-purified)
T1 sequence (P05979 25-600): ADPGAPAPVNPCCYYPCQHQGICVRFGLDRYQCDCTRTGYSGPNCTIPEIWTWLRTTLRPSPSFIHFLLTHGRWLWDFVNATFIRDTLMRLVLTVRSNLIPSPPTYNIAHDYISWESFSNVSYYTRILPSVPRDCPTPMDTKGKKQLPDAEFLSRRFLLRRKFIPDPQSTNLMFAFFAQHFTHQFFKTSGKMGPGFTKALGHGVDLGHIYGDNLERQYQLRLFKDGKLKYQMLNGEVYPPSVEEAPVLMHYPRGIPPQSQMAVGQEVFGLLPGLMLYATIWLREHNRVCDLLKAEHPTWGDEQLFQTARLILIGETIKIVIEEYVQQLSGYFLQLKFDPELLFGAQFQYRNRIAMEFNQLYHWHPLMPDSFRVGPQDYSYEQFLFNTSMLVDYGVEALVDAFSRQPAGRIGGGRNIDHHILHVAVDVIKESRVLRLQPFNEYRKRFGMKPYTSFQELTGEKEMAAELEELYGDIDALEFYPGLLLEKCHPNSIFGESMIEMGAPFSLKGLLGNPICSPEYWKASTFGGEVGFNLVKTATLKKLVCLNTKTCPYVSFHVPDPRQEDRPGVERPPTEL

| Structure (SMILES) | IC50 [1] | IC50 [2] | IC50 [3] | IC50 [4] | IC50 [5] | COX-1 inhibitory activity, % inhibition [6] |
| --- | --- | --- | --- | --- | --- | --- |
| COc1cccc2c1C(=O)c1c(O)c3c(c(O)c1C2=O)C[C@@](O)(C(=O)CO)C[C@@H]3O[C@H]1C[C@H](N)[C@H](O)[C@H](C)O1 [Doxorubicin, reference compound] | 20 ± 10 nM | 150 ± 20 nM | 1290 ± 20 nM | 1000 ± 170 nM | 590 ± 30 nM | – |
| C=C(C)[C@H]1C[C@@H](C[C@@]23C[C@@H](/C=C/C(C)C)C(C)(C)[C@@](CC=C(C)C)(C2=O)c2oc4cc(O)c(O)cc4c(=O)c2C3=O)C1(C)C [picrorhizone H] | – | – | – | – | – | 35.2 ± 9.6% |
